In US9877980B2, “Method and composition for treatment or prevention of type 2 diabetes and hyperlipidemia” (Chun-Ching Shih, priority 2016, dated 2018):

Experiments:
GPAT = test: Semi-quantitative RT-PCR of liver mRNA: GPAT; format: in vivo; conditions: HFD mice, 4 weeks, vs HF group
Description: The following experiment was performed and approved by the guidelines of the Institutional Animal Care and Use Committee of Central Taiwan University of Science and Technology. The 4-week old male C57BL/6J mice (total amount n=63) were purchased from the National Laboratory Animal Breeding and Research Center (Taipei, Taiwan). After acclimatization for one week, all of the mice were divided randomly into the control (CON) group and the high-fat diet (HFD) group. […] After HFD exposure for 8 weeks, the HFD group was further randomly subdivided into 6 groups (n=9 per group) to receive different treatments by oral gavage once daily for four weeks and on HFD. […] The HF+B1, HF+B2, and […] are collectively termed BB-treated HFD groups in the following examples. The CON mice were administered vehicle. After dosing for 4 weeks, the mice were given no food at night and sacrificed after 12 h of fasting on the next day. All of the individual tissues were collected and weighed, and portions were instantly frozen using liquid nitrogen and kept at −80° C. for subsequent target gene analysis. Blood samples (0.8 mL) were collected for analysis of blood parameters.
Total RNA from liver tissue of mice was isolated with a Trizol Reagent (Molecular Research Center, Inc., Cincinnati, Ohio, USA) according to the manufacturer's instructions. The integrity of the extracted total RNA was examined by 2% agarose gel electrophoresis, and the RNA concentration was determined by the ultraviolet (UV) light absorbency at 260 nm and 280 nm (Spectrophotometer U-2800A, Hitachi). The quality of the RNA was confirmed by ethidium bromide staining of 18S and 28S ribosomal RNA after electrophoresis on 2% agarose gel containing 6% formaldehyde.
Levels of mRNA of genes of interest were quantified by semi-quantitative reverse transcription polymerase chain reaction (RT-PCR). […] PCR products were analyzed by 2% agarose gels and stained with ethidium bromide.

Akt = test: Western blotting of phospho-Akt/total Akt in skeletal muscle and liver; format: in vivo; conditions: HFD mice, 4 weeks, vs HF group
Description: The following experiment was performed and approved by the guidelines of the Institutional Animal Care and Use Committee of Central Taiwan University of Science and Technology. The 4-week old male C57BL/6J mice (total amount n=63) were purchased from the National Laboratory Animal Breeding and Research Center (Taipei, Taiwan). After acclimatization for one week, all of the mice were divided randomly into the control (CON) group and the high-fat diet (HFD) group. For the following 12 weeks, the CON group (n=9) was kept on a low-fat diet (Diet 12450B, Research Diets, Inc., New Brunswick, N.J., USA), while the HFD group (n=54) was exposed to a high-fat diet (Diet 12451, Research Diets, New Brunswick, N.J., USA). The low-fat diet was composed of protein 20%, carbohydrate 70% and fat 10%, whereas the high-fat diet was composed of protein 20%, carbohydrate 35%, and fat 45% (of total energy, % kcal). After HFD exposure for 8 weeks, the HFD group was further randomly subdivided into 6 groups (n=9 per group) to receive different treatments by oral gavage once daily for four weeks and on HFD. […] The HF+B1, HF+B2, and […] are collectively termed BB-treated HFD groups in the following examples. The CON mice were administered vehicle. After dosing for 4 weeks, the mice were given no food at night and sacrificed after 12 h of fasting on the next day. All of the individual tissues were collected and weighed, and portions were instantly frozen using liquid nitrogen and kept at −80° C. for subsequent target gene analysis. Blood samples (0.8 mL) were collected for analysis of blood parameters.
Protein extractions and immunoblots for the determination of phospho-AMPK (Thr^172) and phospho-Akt (Ser^473) proteins in skeletal muscle and liver tissue of mice (n=9) were carried out. About 0.1 g of liver tissue and skeletal muscle was used for the homogenate samples. Samples were powdered under liquid nitrogen and homogenized for 20 seconds in 500 μL buffer containing 20 mM Tris-HCL1 (pH 7.4 at 4° C.), 2% SDS, 5 mM EDTA, 5 mM EGTA, 1 mM DTT, 100 mM NaF, 2 mM sodium vanadate, 0.5 mM phenylmethylsulfonyl fluoride, 10 μg/mL leupeptin, and […] pepstatin. The protein concentration in supernatant was determined with a BCA protein assay kit (Thermo Scientific, Rockford, Ill., USA). 20 μg of proteins were separated by electrophoresis on a polyacrylamide gel 12% (SDS-PAGE) and transferred to a nitrocellulose membrane. The membranes were blocked with 5% slim milk in Tris-buffered saline (TBS)(Amersham BioSciences, Uppsala, Sweden) containing 0.05% Tween-20 (Bio Rad, CA, USA) and incubated overnight at 4° C. with anti-phospho-AMPK (Abcam Inc., Cambridge, Mass., USA) and anti-phospho-Akt (Cell signaling Technology, Inc., Danvers, Mass., USA) rabbit polyclonal antibodies at 1:200 dilution. Subsequently, the membranes were washed three times with TBS containing 0.05% Tween-20 and incubated with secondary antibody anti-rabbit (1:1000) (Jackson ImmunoResearch Laboratories, Inc., PA, USA) for 1 hour. Immunoreactive bands were detected with ECL reagent kit (GE Healthcare BioSciences, Buckinghamshire, UK). The intensity of blotting was analyzed using Alpha Easy FC software (Alpha Innotech Corporation, Randburg, South Africa). Structural proteins GAPDH (Santa Cruz Biotechnology, CA, USA) in the samples were used as the loading control.

OCC1O[C@@H](O[C@@H]2Cc3c(O)cc(O)cc3O[C@@H]2c2ccc(O)c(O)c2)C(O)C(O)[C@@H]1O (single isomer, unassigned; (-)) [compound of formula I, (−)-epicatechin-3-O-β-D-allopyranoside]
liver mRNA level of GPAT (GPAT; 10 mg/kg/day oral gavage): significantly reduced | liver mRNA level of GPAT (GPAT; 20 mg/kg/day oral gavage): significantly reduced | liver mRNA level of GPAT (GPAT; 40 mg/kg/day oral gavage): significantly reduced | expression level of phospho-Akt/total Akt (Akt; liver, 10 mg/kg/day oral gavage): increased | expression level of phospho-Akt/total Akt (Akt; liver, 20 mg/kg/day oral gavage): increased | expression level of phospho-Akt/total Akt (Akt; liver, 40 mg/kg/day oral gavage): increased | expression level of phospho-Akt/total Akt (Akt; skeletal muscle, 10 mg/kg/day oral gavage): increased | expression level of phospho-Akt/total Akt (Akt; skeletal muscle, 20 mg/kg/day oral gavage): increased | expression level of phospho-Akt/total Akt (Akt; skeletal muscle, 40 mg/kg/day oral gavage): increased
